Reference: patent US9457022B2, “Methods and compositions for treating or preventing symptoms of hormonal variations” (priority 2010, dated 2016)
Where two headings read alike, the source gives them in different places.

Assays:
[1] = test system: hot flashes, night sweats and other menopausal symptoms; conditions: for Impact on reducing the menopausal symptoms (hot flashes, night sweats): 2009, patient on Tamoxifen, Clonidine given with Vitamin E
From the text: One of ordinary skill in the art would appreciate that this specific example is not intended to limit the scope of the invention.
In September of 1993, a person who had been experiencing severe menstrual cycles required a partial hysterectomy. […] Approximately a year after surgery, they were placed on Cenestin™ (a kind of hormone replacement therapy, i.e., “HRT”).
At this time, the patient began taking dosages of Wellbutrin™ and receiving another hormone replacement therapy of estrogen and testosterone to treat the hot flashes, night sweats and other menopausal symptoms.
In November of 2008, the patient was diagnosed with Stage 2 breast cancer and the HRT was discontinued immediately. Subsequently, the patient underwent a lumpectomy and the removal of fourteen lymph nodes (one tested positive).
In December 2008, the patient went through an intense treatment of chemotherapy which lasted until April 2009. At this time, a less intense chemotherapy treatment was continued until November 2009. The patient also received radiation therapy from April 2009 until June 2009. At the end of the radiation therapy, the patient was started on a regimen of Tamoxifen™.
Clonidine™ is a direct-acting α2 adrenergic agonist that is used to treat several medical conditions. […] Both the Clonidine™ and the Wellbutrin™ were discontinued in June 2009.
It was originally developed for the treatment of epilepsy, and currently, gabapentin is widely used to relieve pain, especially neuropathic pain. […] At this time, the patient was treated with Effexor™ (generic name Venlafaxine), a medication which is used primarily for the treatment of major depression, generalized anxiety disorder, social anxiety disorder, obsessive—compulsive disorder, panic disorder, and menopausal hot flashes in adults.
At this time, the patient began Wellbutrin™ again to treat the hot flashes, night sweats and other menopausal symptoms.
The dosage continued and remained the same for another 5 days.

[2] = test system: hot flashes; conditions: cited from earlier work
[3] = test system: hot flashes; assay: Dextromethorphan HBr in menopausal women with no breast cancer history; severity and frequency of hot flashes; assay type: in vivo, human; conditions: 15 mg in the morning and 15 mg in the evening; summary of Table 1
Experimental: The dosage given in these test cases was 15 mg in the morning and 15 mg in the evening of Dextromethorphan, e.g., DextromethorphanHBr. The decrease in the symptoms of hormonal variation was noted by assessing the severity and frequency of hot flashes.

[4] = test system: hot flashes; conditions: men; double blind, cross over study; cited from earlier work

## CC(NC(C)(C)C)C(=O)c1cccc(Cl)c1 (stereo not drawn) [Wellbutrin™, bupropian]
[1]
  Impact on reducing the menopausal symptoms (hot flashes, night sweats): no impact
[1]; Wellbutrin together with hormone replacement therapy of estrogen and testosterone, from 2006
  Frequency and intensity of hot flashes, night sweats and other menopausal symptoms (patient report): markedly reduced

## CC/C(=C(\c1ccccc1)c1ccc(OCCN(C)C)cc1)c1ccccc1 [Tamoxifen™, tamoxifen]
[1]; human, in vivo
  Hot flashes, night sweats and other menopausal symptoms since commencing treatment: increased in intensity

## NCC1(CC(=O)O)CCCCC1 [gabapentin]
[2]; pilot trials
  Reduction of incidence of hot flashes: 42%-70%
[1]
  Impact on reducing the menopausal symptoms (hot flashes, night sweats): no impact

## COc1ccc2c(c1)[C@]13CCCC[C@@H]1[C@H](C2)N(C)CC3 [Dextromethorphan HBr]
[1]; 30 mg per day (15 mg every 12 hours), by the third day
  Hot flashes, night sweats and other menopausal symptoms: totally gone
[1]; 30 mg per day (15 mg every 12 hours), two days after starting
  Occurrence of hot flashes, night sweats and other menopausal symptoms: reduced significantly
[1]; after 8 days of 30 mg per day
  Time to reoccurrence of menopausal symptoms after discontinuation: ≤ 24 h
[1]; continuing Dextromethorphan HBr alone
  Hot flashes, night sweats and menopausal symptoms after Wellbutrin was discontinued: did not reoccur
[1]; human, in vivo
  Time to elimination of symptoms after again commencing treatment: ≤ 24 h
[3]
  Women who no longer had hot flashes when on Dextromethorphan: four out of the five

## COc1ccc(C(CN(C)C)C2(O)CCCCC2)cc1 (stereo not drawn) [venlafaxine]
[2]; randomized clinical trial, low dose (37.5 mg/day), placebo 27%
  Reduction in hot-flash scores: 37%
[2]; randomized clinical trial, moderate and high doses (75 and 150 mg/day), statistically significant
  Reduction in hot-flash scores: 61%
[1]
  Impact on reducing the menopausal symptoms (hot flashes, night sweats): no impact

## CC(=O)O[C@]1(C(C)=O)CC[C@H]2[C@@H]3C=C(C)C4=CC(=O)CC[C@]4(C)[C@H]3CC[C@@]21C [megestrol acetate]
[2]; men and women, placebo 20%
  Reduction in self-reported hot flash frequency: ~80%

## CNCCC(Oc1ccc(C(F)(F)F)cc1)c1ccccc1 (stereo not drawn) [Fluoxetine]
[2]; 20 mg/day, placebo 36%
  Reduction in hot-flash scores: 50%

## Clc1cccc(Cl)c1N=C1NCCN1 [clonidine]
[2]; randomized clinical trials
  Adverse effects (dry mouth, dizziness, blurred vision): common
  Efficacy versus placebo in preventing hot flashes: moderately more efficacious than placebo
[2]; women treated with clonidine
  Decrease of hot flash frequency greater than that seen with placebo: 10-15%
[1]
  Impact on reducing the menopausal symptoms (hot flashes, night sweats): no impact
[4]
  Difference from placebo effect in self-reported hot flash frequency: not statistically significant
